How the values were obtained:
Assay in all cases: biochemical
MMP-1 = molecular target: T1, MMP-1 (Homo sapiens, UniProt P03956); conditions: recombinant human MMP-1, MCA peptide substrate 4 μM, pH 7.5, room temperature; read-out: MMP-1 IC50
T1 construct: made in house; host or cells: transfected HT-1080 cells (provided by Dr. Harold Welgus, Washington University)
T1 sequence (P03956 100-469): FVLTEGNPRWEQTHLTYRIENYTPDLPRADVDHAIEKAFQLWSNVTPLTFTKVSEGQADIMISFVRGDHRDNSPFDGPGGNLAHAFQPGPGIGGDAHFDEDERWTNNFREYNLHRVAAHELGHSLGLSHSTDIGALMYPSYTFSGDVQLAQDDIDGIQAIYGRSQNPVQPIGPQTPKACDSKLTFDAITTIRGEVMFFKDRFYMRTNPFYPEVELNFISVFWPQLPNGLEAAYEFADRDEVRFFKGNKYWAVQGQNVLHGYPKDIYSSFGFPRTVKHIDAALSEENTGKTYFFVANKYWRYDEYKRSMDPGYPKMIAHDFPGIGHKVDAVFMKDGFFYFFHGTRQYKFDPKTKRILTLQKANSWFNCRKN
Method in brief: (§1)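 Assay buffer 100 mM Tris-HCl, 100 mM NaCl, 10 mM CaCl2, pH 7.5. Activated MMP + inhibitor, 5 min RT; then methoxycoumarin peptide substrate, 4 μM final. Readout fluorescence; IC50 calculated.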

MMP-2 = molecular target: T2, MMP-2 (Homo sapiens, UniProt P08253); conditions: recombinant human MMP-2, MCA peptide substrate 4 μM, pH 7.5, room temperature; read-out: MMP-2 IC50
T2 construct: made in house; provided by Dr. Gregory Goldberg, Washington University
T2 sequence (P08253 110-660): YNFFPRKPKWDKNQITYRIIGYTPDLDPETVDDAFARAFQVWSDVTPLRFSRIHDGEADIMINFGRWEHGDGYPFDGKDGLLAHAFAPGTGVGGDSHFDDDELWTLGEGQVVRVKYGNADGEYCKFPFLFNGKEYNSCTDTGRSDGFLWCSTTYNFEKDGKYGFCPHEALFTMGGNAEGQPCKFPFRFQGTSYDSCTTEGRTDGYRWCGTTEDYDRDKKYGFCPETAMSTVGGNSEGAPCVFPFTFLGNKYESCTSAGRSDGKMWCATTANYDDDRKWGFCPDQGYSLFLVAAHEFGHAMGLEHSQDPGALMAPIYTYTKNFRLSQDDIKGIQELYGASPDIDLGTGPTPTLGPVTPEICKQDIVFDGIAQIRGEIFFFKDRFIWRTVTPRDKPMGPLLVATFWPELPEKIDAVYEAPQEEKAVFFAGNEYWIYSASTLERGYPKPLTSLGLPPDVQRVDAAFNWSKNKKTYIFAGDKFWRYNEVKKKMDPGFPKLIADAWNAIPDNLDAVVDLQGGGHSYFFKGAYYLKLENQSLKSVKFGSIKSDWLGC
Method in brief: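 APMA- or trypsin-activated human MMPs (MMP-1 from transfected HT-1080 cells, MMP-2 from transfected cells) preincubated with inhibitor in 1% DMSO at room temperature, then 4 μM MCA-Pro-Leu-Gly-Leu-Dpa-Ala-Arg-NH2 added in Tris/NaCl/CaCl2 buffer pH 7.5. IC50 from fluorescence reduction versus inhibitor concentration.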

MMP-13 = molecular target: T3, MMP-13 (Homo sapiens, UniProt P45452); conditions: recombinant human MMP-13, MCA peptide substrate 4 μM, pH 7.5, room temperature; read-out: MMP-13 IC50
T3 construct: made in house; host or cells: baculovirus / insect cells
Method in brief: as §1

Structure (SMILES)	IC50 (MMP-1)	IC50 (MMP-2)	IC50 (MMP-13)
Cc1cccc(OC2CCN(c3ccc(S(=O)(=O)C4(C(=O)NO)CCOCC4)cc3)CC2)c1 [Example 485]	> 10000 nM	4.2 nM	8 nM
O=C(NO)C1(S(=O)(=O)c2ccc(N3CCN(S(=O)(=O)c4ccc(C(F)(F)F)cc4)CC3)cc2)CCOCC1 [Example 677]	> 10000 nM	34.7 nM	7 nM
CC1CC(C)CN(C(=O)C2CCN(c3ccc(S(=O)(=O)C4(C(=O)NO)CCN(C(=O)CNCCCO)CC4)cc3)CC2)C1 (stereo not drawn) [Example 280]	> 10000 nM	> 10000 nM	90 nM
O=C(c1ccc(Cl)c(Cl)c1)C1CCN(c2ccc(S(=O)(=O)C3(C(=O)NO)CCOCC3)cc2)CC1 [Example 846]	> 10000 nM	186 nM	4.5 nM
O=C(Nc1ccccc1OC(F)(F)F)C1CCN(c2ccc(S(=O)(=O)C3(C(=O)NO)CCOCC3)cc2)CC1 [Example 63]	> 10000 nM	2900 nM	20 nM
CS(=O)(=O)N1CCC(C(=O)NO)(S(=O)(=O)c2ccc(Oc3ccc(OC(F)(F)F)cc3)cc2)CC1 [Example 273, N-Hydroxy-1-(methylsulfonyl)-4-[[4-[4-sulfonyl]-(trifluoromethoxy)phenoxy]phenyl]-4-piperidinecarboxamide]	> 10000 nM	0.1 nM	0.3 nM
C=C(C)CC(=O)C1CCN(c2ccc(S(=O)(=O)C3(C(=O)NO)CCOCC3)cc2)CC1 [Example 759]	> 10000 nM	60.8 nM	3 nM
O=C(NO)C1(S(=O)(=O)c2ccc(N3CC4CC3CO4)cc2)CCOCC1 (stereo not drawn) [Example 492]	> 10000 nM	> 10000 nM	6100 nM
O=C(NO)C1(S(=O)(=O)c2ccc(N3CCC(Oc4ccc(OC(F)(F)F)cc4)CC3)cc2)CCOCC1 [Example 480]	> 10000 nM	155 nM	18.6 nM
O=C(NO)C1(S(=O)(=O)c2ccc(N3CCC(Oc4ccc5c(c4)OCO5)CC3)cc2)CCOCC1 [Example 644]	8800 nM	3.3 nM	1.6 nM
CN(C)CCN(C)CCCCC(=O)N1CCC(C(=O)NO)(S(=O)(=O)c2ccc(Oc3ccc(C(F)(F)F)cc3)cc2)CC1 [Example 338]	> 10000 nM	0.2 nM	1.9 nM
O=C(NO)C1(S(=O)(=O)c2ccc(N3CCC(Cc4ccccc4)CC3)cc2)CCOCC1 [Example 720]	> 10000 nM	36.9 nM	4.5 nM
O=C(NO)C1(S(=O)(=O)c2ccc(N3CCCN(S(=O)(=O)c4ccc(C(F)(F)F)cc4)CC3)cc2)CCOCC1 [Example 697]	> 10000 nM	1500 nM	18.1 nM
CCCC(=O)N1CCN(c2ccc(S(=O)(=O)C3(C(=O)NO)CCOCC3)cc2)CC1 [Example 590]	> 10000 nM	80 nM	121 nM
CCCC(=O)C1CCN(c2ccc(S(=O)(=O)C3(C(=O)NO)CCOCC3)cc2)CC1 [Example 799]	> 10000 nM	43.5 nM	10.6 nM
O=C(NO)C1(S(=O)(=O)c2ccc(N3CCC(OCc4ccc(Br)cc4)CC3)cc2)CCOCC1 [Example 579]	> 10000 nM	100 nM	2.7 nM
O=C(Nc1cccnc1)OC1CCN(c2ccc(S(=O)(=O)C3(C(=O)NO)CCOCC3)cc2)CC1 [Example 465]	> 10000 nM	370 nM	80 nM
O=C(Nc1ccc(F)cc1F)N1CCC(C(=O)NO)(S(=O)(=O)c2ccc(Oc3ccc(OC(F)(F)F)cc3)cc2)CC1 [Example 363]	8800 nM	0.2 nM	0.4 nM
O=C(NO)C1(S(=O)(=O)c2ccc(OC3CN(C(c4ccccc4)c4ccccc4)C3)cc2)CCOCC1 [Example 794]	> 10000 nM	2900 nM	1500 nM
Cc1ccc(OC2CCN(c3ccc(S(=O)(=O)C4(C(=O)NO)CCOCC4)cc3)CC2)cc1C [Example 637]	> 10000 nM	22 nM	3.8 nM

From US6750228B1, “Aromatic sulfone hydroxamic acid metalloprotease inhibitor” (priority 1997, dated 2004)
